Legend:
[1] = Distribution coefficient between 1-Octanol and aqueous phosphate buffer, logD of the compound at pH 7.4 by shake flask method; type: physicochemical; settings: 1-octanol/aqueous phosphate buffer
[2] = Oral bioavailability in overnight fasted Beagle dog at 2.37 mg/kg measured upto 24 hrs by LC-MS/MS analysis; type: ADME, organism-based, Canis lupus familiaris; settings: in vivo
[3] = Cmax in CD-1 mouse at 10 mg/kg, po measured upto 24 hrs by LC-MS/MS analysis; type: ADME, organism-based; settings: in vivo
[4] = Chromatographic hydrophobicity index, log D of the compound at pH 7.4 by LC/MS analysis; type: physicochemical; settings: buffer
[5] = Cmax in 8 hrs fasted cynomolgus monkey assessed as liver blood flow at 3 mg/kg, po measured upto 24 hrs by LC-MS/MS analysis; type: ADME, organism-based, Macaca fascicularis; settings: in vivo
[6] = biological target: Cytochrome P450 3A5 (Homo sapiens, UniProt P20815); assay: Inhibition of human CYP3A5 preincubated for 5 mins followed by NADPH addition measured after 5 to 30 mins by LC-MS analysis; type: ADME; settings: time 10-35 min
[7] = Clearance in overnight fasted Beagle dog assessed as liver blood flow at 0.51 mg/kg, iv measured upto 24 hrs by LC-MS/MS analysis; type: ADME, organism-based, Canis lupus familiaris; settings: in vivo
[8] = test system: dengue virus type 2; assay: In vivo antiviral activity against DENV-2/RL infected in AG129 mouse assessed as increase in efficacy administered as po bid for 3 days; type: functional, organism-based; settings: dose 0.2-60 mg/kg/day, time 3.0 day
[9] = Clearance in overnight fasted Beagle dog at 0.51 mg/kg, iv measured upto 24 hrs by LC-MS/MS analysis; type: ADME, organism-based, Canis lupus familiaris; settings: in vivo
[10] = biological target: Cytochrome P450 2C9 (Homo sapiens, UniProt P11712); assay: Inhibition of human CYP2C9 preincubated for 5 mins followed by NADPH addition measured after 5 to 30 mins by LC-MS analysis; type: ADME
[11] = Mutagenicity in Salmonella typhimurium TA7006 in presence or absence of S9 fraction pretreated for 90 mins measured after 48 hrs in dark by AMES test; type: toxicity; settings: salmonella enterica subsp. enterica serovar typhimurium, s9, 49.5 h; time 2970 min
[12] = Volume of distribution at steady state in Sprague-Dawley rat at 2.5 mg/kg, iv measured after 24 hrs by LC-MS/MS analysis; type: ADME, organism-based; settings: in vivo, read-out: Vdss
[13] = Metabolic stability in human liver microsomes assessed as intrinsic clearance preincubated for 5 mins followed by NADPH addition measured upto 60 mins by LC-MS/MS analysis; type: ADME, Microsome; settings: time < 65 min, read-out: CLH
[14] = Cytotoxicity against african green monkey Vero cells by ATPlite cell viability luminescence assay; type: toxicity, cell-based; settings: chlorocebus sabaeus
[15] = Elimination half life in overnight fasted Beagle dog at 0.51 mg/kg, iv measured upto 24 hrs by LC-MS/MS analysis; type: ADME, organism-based, Canis lupus familiaris; settings: in vivo, read-out: beta t1/2 (converted)
[16] = biological target: Cytochrome P450 2C19 (Homo sapiens, UniProt P33261); assay: Inhibition of human CYP2C19 preincubated for 5 mins followed by NADPH addition measured after 5 to 30 mins by LC-MS analysis; type: ADME
[17] = Mutagenicity in Salmonella typhimurium TA7001 in presence or absence of S9 fraction pretreated for 90 mins measured after 48 hrs in dark by AMES test; type: toxicity; settings: salmonella enterica subsp. enterica serovar typhimurium, s9, 49.5 h; time 2970 min
[18] = Mutagenicity in Salmonella typhimurium TA7004 in presence or absence of S9 fraction pretreated for 90 mins measured after 48 hrs in dark by AMES test; type: toxicity; settings: salmonella enterica subsp. enterica serovar typhimurium, s9, 49.5 h; time 2970 min
[19] = Mutagenicity in Salmonella typhimurium TA7005 in presence or absence of S9 fraction pretreated for 90 mins measured after 48 hrs in dark by AMES test; type: toxicity; settings: salmonella enterica subsp. enterica serovar typhimurium, s9, 49.5 h; time 2970 min
[20] = Clearance in Sprague-Dawley rat assessed as liver blood flow at 2.5 mg/kg, iv measured after 24 hrs by LC-MS/MS analysis; type: ADME, organism-based; settings: in vivo
[21] = Cmax in Sprague-Dawley rat at 10 mg/kg, po measured after 24 to 48 hrs by LC-MS/MS analysis; type: ADME, organism-based; settings: in vivo, time 24-48 hrs
[22] = Metabolic stability in cynomolgus monkey hepatocytes assessed as intrinsic clearance measured per million cells incubated upto 120 mins by LC-MS/MS analysis; type: ADME, cell-based, Macaca fascicularis, Hepatocyte; settings: read-out: CLH
[23] = biological target: Cytochrome P450 2D6 (Homo sapiens, UniProt P10635); assay: Inhibition of human CYP2D6 preincubated for 5 mins followed by NADPH addition measured after 5 to 30 mins by LC-MS analysis; type: ADME
[24] = Clearance in Sprague-Dawley rat at 2.5 mg/kg, iv measured after 24 hrs by LC-MS/MS analysis; type: ADME, organism-based; settings: in vivo
[25] = Volume of distribution at steady state in overnight fasted Beagle dog at 0.51 mg/kg, iv measured upto 24 hrs by LC-MS/MS analysis; type: ADME, organism-based, Canis lupus familiaris; settings: in vivo, read-out: Vdss
[26] = Oral bioavailability in Sprague-Dawley rat at 10 mg/kg measured after 24 to 48 hrs by LC-MS/MS analysis; type: ADME, organism-based; settings: in vivo, time 24-48 hrs
[27] = Clearance in CD-1 mouse assessed as liver blood flow at 2.5 mg/kg, iv measured upto 24 hrs by LC-MS/MS analysis; type: ADME, organism-based; settings: in vivo
[28] = Elimination half life in 8 hrs fasted cynomolgus monkey assessed as liver blood flow at 1 mg/kg, iv measured upto 24 hrs by LC-MS/MS analysis; type: ADME, organism-based, Macaca fascicularis; settings: in vivo, read-out: beta t1/2 (converted)
[29] = AUC in CD-1 mouse at 10 mg/kg, po measured upto 24 hrs by LC-MS/MS analysis; type: ADME, organism-based; settings: in vivo
[30] = Cmax in overnight fasted Beagle dog at 2.37 mg/kg, po measured upto 24 hrs by LC-MS/MS analysis; type: ADME, organism-based, Canis lupus familiaris; settings: in vivo
[31] = Mutagenicity in Salmonella typhimurium TA98 in presence or absence of S9 fraction pretreated for 90 mins measured after 48 hrs in dark by AMES test; type: toxicity; settings: salmonella enterica subsp. enterica serovar typhimurium, s9, 49.5 h; time 2970 min
[32] = test system: dengue virus type 3; assay: Antiviral activity against DENV-3 H87 infected in african green monkey Vero cells incubated for 24 hrs measured after 3 days post infection by RT-PCR analysis; type: functional, organism-based; settings: Dengue virus, H87, Vero; read-out: EC50

Cytochrome P450 2C19, sequence (P33261 whole entry): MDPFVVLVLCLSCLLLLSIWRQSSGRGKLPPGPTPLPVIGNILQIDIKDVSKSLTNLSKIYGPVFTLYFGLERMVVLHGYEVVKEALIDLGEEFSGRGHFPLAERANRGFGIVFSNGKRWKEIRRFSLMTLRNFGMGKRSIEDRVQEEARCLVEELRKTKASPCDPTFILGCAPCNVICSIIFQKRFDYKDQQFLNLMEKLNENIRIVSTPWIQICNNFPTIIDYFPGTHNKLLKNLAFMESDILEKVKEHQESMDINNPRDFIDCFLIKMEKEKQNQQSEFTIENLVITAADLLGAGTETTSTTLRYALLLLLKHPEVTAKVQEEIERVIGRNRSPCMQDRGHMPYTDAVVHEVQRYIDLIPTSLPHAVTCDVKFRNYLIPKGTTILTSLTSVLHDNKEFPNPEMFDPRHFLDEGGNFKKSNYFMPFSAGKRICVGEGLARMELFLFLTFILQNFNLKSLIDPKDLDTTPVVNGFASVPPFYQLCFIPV
Cytochrome P450 2C9, sequence (P11712 whole entry): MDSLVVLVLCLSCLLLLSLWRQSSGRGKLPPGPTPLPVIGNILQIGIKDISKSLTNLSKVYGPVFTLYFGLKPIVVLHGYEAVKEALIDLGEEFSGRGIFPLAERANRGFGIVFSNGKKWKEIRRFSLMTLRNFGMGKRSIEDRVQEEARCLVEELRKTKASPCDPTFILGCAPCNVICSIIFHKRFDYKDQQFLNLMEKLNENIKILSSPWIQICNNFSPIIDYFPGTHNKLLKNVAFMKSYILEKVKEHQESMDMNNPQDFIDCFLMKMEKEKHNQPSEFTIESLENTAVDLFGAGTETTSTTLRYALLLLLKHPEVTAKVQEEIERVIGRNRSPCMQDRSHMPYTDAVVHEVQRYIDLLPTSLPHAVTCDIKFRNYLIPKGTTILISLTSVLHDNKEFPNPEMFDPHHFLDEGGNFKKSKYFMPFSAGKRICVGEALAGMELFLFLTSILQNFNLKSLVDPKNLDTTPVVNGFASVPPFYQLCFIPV
Cytochrome P450 2D6, sequence (P10635 whole entry): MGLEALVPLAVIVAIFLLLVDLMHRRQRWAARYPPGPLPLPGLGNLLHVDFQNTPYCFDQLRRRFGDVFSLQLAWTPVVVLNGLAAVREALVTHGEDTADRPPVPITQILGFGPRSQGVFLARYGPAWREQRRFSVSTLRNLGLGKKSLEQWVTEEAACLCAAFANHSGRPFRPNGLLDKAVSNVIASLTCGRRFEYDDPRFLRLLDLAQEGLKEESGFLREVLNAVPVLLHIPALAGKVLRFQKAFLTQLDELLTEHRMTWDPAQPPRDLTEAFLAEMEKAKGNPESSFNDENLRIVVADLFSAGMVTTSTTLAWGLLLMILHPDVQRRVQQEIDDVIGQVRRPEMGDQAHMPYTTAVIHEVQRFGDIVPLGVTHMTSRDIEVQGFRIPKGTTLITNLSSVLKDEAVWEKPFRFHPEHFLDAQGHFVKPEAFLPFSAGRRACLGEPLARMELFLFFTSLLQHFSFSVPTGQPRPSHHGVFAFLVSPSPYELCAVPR
Cytochrome P450 3A5, sequence (P20815 whole entry): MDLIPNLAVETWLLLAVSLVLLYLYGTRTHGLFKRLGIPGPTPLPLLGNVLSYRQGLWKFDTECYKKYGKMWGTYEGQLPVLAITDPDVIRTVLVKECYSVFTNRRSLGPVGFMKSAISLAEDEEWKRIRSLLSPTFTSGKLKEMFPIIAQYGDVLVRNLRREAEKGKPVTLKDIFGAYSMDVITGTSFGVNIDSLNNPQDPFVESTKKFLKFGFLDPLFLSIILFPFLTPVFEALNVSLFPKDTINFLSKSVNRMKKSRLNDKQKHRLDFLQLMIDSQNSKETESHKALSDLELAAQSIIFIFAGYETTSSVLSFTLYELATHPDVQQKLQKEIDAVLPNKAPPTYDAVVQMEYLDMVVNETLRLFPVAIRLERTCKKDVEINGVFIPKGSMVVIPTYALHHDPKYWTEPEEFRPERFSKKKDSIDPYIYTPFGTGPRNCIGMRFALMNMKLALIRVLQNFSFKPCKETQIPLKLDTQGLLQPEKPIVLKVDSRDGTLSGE

- logD [1]: > 4.1
- bioavailability [2]: 51%
- Cmax [3]: 2730 ng/mL
- Chromatographic log D at pH 7.4 [4]: 3.94
- Cmax [5]: 613 ng/mL
- inhibition (INH) [6]: Not Active
- LBF [7]: 21%
- clearance [9]: 6.4 mL/min/kg
- IC50 [10]: 3.7 µM
- Vd [12]: 4.6 L/kg
- microsomal CLint [13]: < 8 µL/min/mg
- half-life [15]: 7.3 h
- IC50 [16]: 10.3 µM
- LBF [20]: 7%
- Cmax [21]: 629 ng/mL
- hepatocyte CLint [22]: < 1.9 µL/min/1e6 cells
- IC50 [23]: > 30 µM
- clearance [24]: 4.9 mL/min/kg
- Vd [25]: 3.1 L/kg
- bioavailability [26]: 58%
- LBF [27]: 4%
- half-life [28]: 9.57 h
- AUC at 24 h [29]: 35600 ng·h/mL
- Cmax [30]: 362 ng/mL
- EC50 [32]: 0.002 µM
SMILES: COc1cc(N[C@H](C(=O)c2c[nH]c3ccc(OC(F)(F)F)cc23)c2ccc(Cl)cc2OC)cc(S(C)(=O)=O)c1 [MOSNODENVIR]
- Activity [8]: Dose-Dependent Effect
- Activity [11]: Non-Toxic
- CC50 [14]: 2.6 µM
- Activity [17]: Non-Toxic
- Activity [18]: Non-Toxic
- Activity [19]: Non-Toxic
- Activity [31]: Non-Toxic

— ChEMBL document CHEMBL5518227, “Discovery of JNJ-1802, a First-in-Class Pan-Serotype Dengue Virus NS4B Inhibitor” (J Med Chem, 2024)
